From PMC5736175, “Nicotinic alpha 7 receptor agonists EVP-6124 and BMS-933043, attenuate scopolamine-induced deficits in visuo-spatial paired associates learning” (PLoS ONE, 2017)
Where “and” joins values, the source holds several entries; their conditions need not be identical. Identical values can stand only once.

Legend:
[1] = Plasma pharmacokinetics in satellite animals (LC-MS/MS), 60 min after i.m. dose; conditions: individual subjects
Protocol: (§1) For all compounds, plasma pharmacokinetic studies were conducted in a separate cohort of cynomolgus monkeys (N = 2–3 subjects per dose) before beginning vsPAL testing to help guide dose selection. Blood samples were obtained with the animals awake and sitting in a primate chair.
(§2) Plasma concentrations of test compounds were determined using LC-MS/MS assays. In brief, 50 μL plasma and sample containing compounds was extracted by protein precipitation method with 150 μL acetonitrile containing an internal standard. A 5 μL sample of supernatant was injected into the LC-MS/MS system. Analytes were separated by reversed phase chromatography and detection of each analyte was achieved through selected reaction monitoring mode of mass spectrometry. Samples were quantified by calculated peak area ratio of analyte and internal standard against a calibration curve.

[2] = Plasma concentration in vsPAL subjects immediately after completion of testing (LC-MS/MS); conditions: individual subjects
Protocol: as §1, with “chair. For most test sessions with BMS-933043 and EVP-6124, plasma samples were also taken from a subset of vsPAL subjects (N = 4–5) immediately after completion of testing (mean (SD) sample collection time = 69.8 (9.8) min post injection).” for “chair.”
as §2

[3] = system: human nAChR α7; parameters: method as in PMID 27467081; conditions: intrinsic activity; HEK293 cells expressing human nAChR α7; cited from earlier work
[4] = system: human nAChR α7; parameters: method as in PMID 20959364, PMID 22085888; conditions: xenopus oocytes expressing human nAChR α7; cited from earlier work
[5] = system: 5-HT3 receptor; conditions: cited from earlier work
[6] = parameters: method as in PMID 25438724; conditions: 20 mg dose (maximal DSST effects), cited from earlier work

Cl.O=C(N[C@H]1CN2CCC1CC2)c1cc2cccc(Cl)c2s1 [EVP-6124, (R)-7-chloro-N-(quinuclidin-3-yl)benzo[b]thiophene-2-carboxamide HCl]
nM total compound in plasma from satellite animals, 60 min ([1]; 0.03 mg/kg i.m.): 4.1 nM and 3.5 nM | nM total compound in plasma from satellite animals, 60 min ([1]; 0.10 mg/kg i.m.): 9.5 nM | nM total compound in plasma from satellite animals, 60 min ([1]; 0.30 mg/kg i.m.): 39.6 nM | nM total compound in plasma from satellite animals, 60 min ([1]; 1.00 mg/kg i.m.): 103.0 nM | nM total compound in plasma post session ([2]; 0.003 mg/kg i.m.): 0.5 nM and 1.4 nM and 1.6 nM and 1.1 nM and 0.496 nM | nM total compound in plasma post session ([2]; 0.01 mg/kg i.m., row): 1.526 nM and 1.174 nM and 1.539 nM | nM total compound in plasma post session ([2]; 0.03 mg/kg i.m.): 4.44 nM and 6.8 nM and 3.56 nM | nM total compound in plasma post session ([2]; 0.10 mg/kg i.m.): 14.8 nM and 14.9 nM and 11.8 nM and 10.9 nM | nM total compound in plasma post session ([2]; 0.30 mg/kg i.m.): 76.7 nM and 38.4 nM and 48.3 nM and 47.3 nM | nM total compound in plasma post session ([2]; 1.00 mg/kg i.m.): 196 nM and 145 nM and 188 nM and 192 nM | net charge relative to acetylcholine [3]: 136% | peak current response relative to acetylcholine [3]: 32% | maximal peak current, % of the acetylcholine response [4]: 80% | 5-HT3 receptor antagonism [5]: potent 5-HT3 receptor antagonists | plasma Cmax [6]: 10.4 ng/mL | Cmax ([6]; read-out: plasma Cmax): 32 nM
